Patent US8445492B2, “Method for inhibiting growth of cancer cells and cell telomere and diseases of cell proliferation by using heteroannelated anthraquinone derivative compounds” (National Defense Medical Center, priority 2008, dated 2013)
Where two headings read alike, the source gives them in different places.

Assays:
[1] = tested on: HL-60(TB); experiment: NCI DTP in-vitro dose response, Leukemia
[2] = tested on: RPMI-8226; experiment: NCI DTP in-vitro dose response, Leukemia
[3] = tested on: RPMI-8226
[4] = tested on: K-562
[5] = tested on: CCRF-CEM
[6] = tested on: K-562; experiment: NCI DTP in-vitro dose response, Leukemia
[7] = tested on: MOLT-4
[8] = tested on: HL-60(TB)
[9] = tested on: CCRF-CEM; experiment: NCI DTP in-vitro dose response, Leukemia
[10] = tested on: MOLT-4; experiment: NCI DTP in-vitro dose response, Leukemia
[11] = tested on: A549/ATCC
[12] = tested on: HOP-62
[13] = tested on: HOP-62; remark: listed apart in the source
[14] = tested on: NCI-H226
[15] = tested on: HOP-92
[16] = tested on: NCI-H460
[17] = tested on: NCI-H522
[18] = tested on: A549/ATCC; remark: listed apart in the source
[19] = tested on: NCI-H460; remark: listed apart in the source
[20] = tested on: NCI-H23
[21] = tested on: NCI-H226; remark: listed apart in the source
[22] = tested on: NCI-H23; remark: listed apart in the source
[23] = tested on: NCI-H522; remark: listed apart in the source
[24] = tested on: EKVX
[25] = tested on: HOP-92; remark: listed apart in the source
[26] = tested on: EKVX; remark: listed apart in the source

## O=C1c2ccccc2C(=O)c2c1ccc1nccnc21 [TABLE 5-1]
[1]
  CC50: 83.7 µM
[2]
  CC50: > 100 µM
[3]
  GI50: 1.61 µM
  TGI: >1.00E−4
[3]; Log10 Concentration −4.0
  Percent Growth: 12%
[3]; Log10 Concentration −5.0
  Percent Growth: 30%
[3]; Log10 Concentration −6.0
  Percent Growth: 55%
[3]; Log10 Concentration −7.0
  Percent Growth: 81%
[3]; Log10 Concentration −8.0
  Percent Growth: 90%
[4]
  GI50: 0.0683 µM
  TGI: >1.00E−4
[4]; Log10 Concentration −4.0
  Percent Growth: 10%
[4]; Log10 Concentration −5.0
  Percent Growth: 17%
[4]; Log10 Concentration −6.0
  Percent Growth: 30%
[4]; Log10 Concentration −7.0
  Percent Growth: 41%
[4]; Log10 Concentration −8.0
  Percent Growth: 94%
[5]
  GI50: 2.46 µM
  TGI: >1.00E−4
[5]; Log10 Concentration −4.0
  Percent Growth: 20%
[5]; Log10 Concentration −5.0
  Percent Growth: 22%
[5]; Log10 Concentration −6.0
  Percent Growth: 68%
[5]; Log10 Concentration −7.0
  Percent Growth: 91%
[5]; Log10 Concentration −8.0
  Percent Growth: 90%
[6]
  CC50: > 100 µM
[7]
  GI50: 3.65 µM
  TGI: >1.00E−4
[7]; Log10 Concentration −4.0
  Percent Growth: 4%
[7]; Log10 Concentration −5.0
  Percent Growth: 33%
[7]; Log10 Concentration −6.0
  Percent Growth: 72%
[7]; Log10 Concentration −7.0
  Percent Growth: 81%
[7]; Log10 Concentration −8.0
  Percent Growth: 89%
[8]
  GI50: 0.677 µM
  TGI: 1.15E−5
[8]; Log10 Concentration −4.0
  Percent Growth: −54%
[8]; Log10 Concentration −5.0
  Percent Growth: 3%
[8]; Log10 Concentration −6.0
  Percent Growth: 47%
[8]; Log10 Concentration −7.0
  Percent Growth: 67%
[8]; Log10 Concentration −8.0
  Percent Growth: 83%
[9]
  CC50: > 100 µM
[10]
  CC50: > 100 µM

## O=C1c2ccccc2C(=O)c2c1ccc1nccnc21 [TABLE 5-2]
[11]
  CC50: > 100 µM
[12]
  CC50: > 100 µM
[13]
  GI50: 5.64 µM
  TGI: >1.00E−4
[13]; Log10 Concentration −4.0
  Percent Growth: 3%
[13]; Log10 Concentration −5.0
  Percent Growth: 40%
[13]; Log10 Concentration −6.0
  Percent Growth: 81%
[13]; Log10 Concentration −7.0
  Percent Growth: 82%
[13]; Log10 Concentration −8.0
  Percent Growth: 92%
[14]
  GI50: 16.6 µM
  TGI: 9.52E−5
[14]; Log10 Concentration −4.0
  Percent Growth: −1%
[14]; Log10 Concentration −5.0
  Percent Growth: 64%
[14]; Log10 Concentration −6.0
  Percent Growth: 73%
[14]; Log10 Concentration −7.0
  Percent Growth: 81%
[14]; Log10 Concentration −8.0
  Percent Growth: 86%
[15]
  CC50: > 100 µM
[16]
  GI50: 2.01 µM
  TGI: 2.69E−5
[16]; Log10 Concentration −4.0
  Percent Growth: −22%
[16]; Log10 Concentration −5.0
  Percent Growth: 17%
[16]; Log10 Concentration −6.0
  Percent Growth: 65%
[16]; Log10 Concentration −7.0
  Percent Growth: 95%
[16]; Log10 Concentration −8.0
  Percent Growth: 98%
[17]
  CC50: > 100 µM
[18]
  GI50: 4.53 µM
  TGI: >1.00E−4
[18]; Log10 Concentration −4.0
  Percent Growth: 3%
[18]; Log10 Concentration −5.0
  Percent Growth: 36%
[18]; Log10 Concentration −6.0
  Percent Growth: 77%
[18]; Log10 Concentration −7.0
  Percent Growth: 95%
[18]; Log10 Concentration −8.0
  Percent Growth: 93%
[19]
  CC50: > 100 µM
[20]
  CC50: > 100 µM
[21]
  CC50: > 100 µM
[22]
  GI50: 12 µM
  TGI: 7.03E−5
[22]; Log10 Concentration −4.0
  Percent Growth: −10%
[22]; Log10 Concentration −5.0
  Percent Growth: 55%
[22]; Log10 Concentration −6.0
  Percent Growth: 84%
[22]; Log10 Concentration −7.0
  Percent Growth: 87%
[22]; Log10 Concentration −8.0
  Percent Growth: 92%
[23]
  GI50: 4.64 µM
  TGI: 3.25E−5
[23]; Log10 Concentration −4.0
  Percent Growth: −33%
[23]; Log10 Concentration −5.0
  Percent Growth: 35%
[23]; Log10 Concentration −6.0
  Percent Growth: 81%
[23]; Log10 Concentration −7.0
  Percent Growth: 86%
[23]; Log10 Concentration −8.0
  Percent Growth: 89%
[24]
  CC50: > 100 µM
[25]
  GI50: 22.5 µM
  TGI: >1.00E−4
[25]; Log10 Concentration −4.0
  Percent Growth: 8%
[25]; Log10 Concentration −5.0
  Percent Growth: 73%
[25]; Log10 Concentration −6.0
  Percent Growth: 78%
[25]; Log10 Concentration −7.0
  Percent Growth: 83%
[25]; Log10 Concentration −8.0
  Percent Growth: 95%
[26]
  GI50: 3.45 µM
  TGI: 7.21E−5
[26]; Log10 Concentration −4.0
  Percent Growth: −4%
[26]; Log10 Concentration −5.0
  Percent Growth: 25%
[26]; Log10 Concentration −6.0
  Percent Growth: 79%
[26]; Log10 Concentration −7.0
  Percent Growth: 89%
[26]; Log10 Concentration −8.0
  Percent Growth: 101%
